Data on 14 compounds can be found in patent US9096615B2, “Bridged bicyclic amino thiazine dioxide compounds as inhibitors of beta-secretase and methods of use thereof” (AMGEN INC., priority 2013, dated 2015).

pIC50: −log10 of the molar value. Where two headings read alike, the source gives them in different places. Where only a bound is given, the exact number is not on record here.

Assay [1] has as its system Aβ40 in conditioned medium of cells stably expressing Amyloid Precursor Protein (APP). Kind of assay: In vitro BACE cell-based assay (HEK cell assay, Aβ40 sandwich ELISA). The note with it: Homo sapiens, HEK293. As to the method:
In Vitro BACE Cell-Based Assay
The cell-based assay measures inhibition or reduction of Aβ40 in conditioned medium of test compound treated cells expressing amyloid precursor protein.
Cells stably expressing Amyloid Precursor Protein (APP) were plated at a density of 40K cells/well in 96 well plates (Costar). The cells were cultivated for 24 hours at 37° C. and 5% CO2 in DMEM supplemented with 10% FBS. The test compounds were then added to cells in 10-point dose response concentrations with the starting concentration being either 100 μM or 10 μM. The compounds were diluted from stock solutions in DMSO and the final DMSO concentration of the test compounds on cells was 0.1%. After 24 h of incubation with the test compounds the supernatant conditioned media was collected and the Aβ 40 levels were determined using a sandwich ELISA. The IC50 of the compound was calculated from the percent of control or percent inhibition of Aβ 40 as a function of the concentration of the test compound.
The sandwich ELISA to detect Aβ 40 was performed in 96 well microtiter plates, which were pre-treated with goat anti-rabbit IgG (Pierce). The capture and detecting antibody pair that were used to detect Aβ 40 from cell supernatants were affinity purified pAb40 (Biosource) and biotinylated 6E10 (Signet Labs Inc.), respectively. The optimal concentration for the pAb40 antibody was 3 μg/ml in Superblock/TBS (Pierce) that was supplemented with 0.05% Tween 20 (Sigma). Optimal concentration for the detection antibody 6E10-biotinylated was 0.5 μg/ml in Superblock/TBS (Pierce) that had been supplemented with 2% normal goat serum and 2% normal mouse serum.
Cellular supernatants were incubated with the capture antibody for 3 h at 4° C., followed by 3 wash steps in TBS-tween (0.05%). The detecting antibody incubation was for 2 h at 4° C., again followed by the wash steps as described previously. The final readout of the ELISA is Time-Resolved Fluorescence (counts per minute) using Delfia reagents Streptavidin-Europium and Enhancement solutions (Perkin Elmer) and the Victor 2 multilabel counter (Perkin Elmer).
For orientation: An ELISA detects its analyte on a solid surface through an enzyme-linked reagent.

The target of assay [2] is BACE1 (Homo sapiens, UniProt P56817). The assay is described as follows: In vitro enzymatic BACE FRET assay. Type of assay: biochemical. As to the method: In Vitro Enzymatic BACE FRET (Fluorescence Resonance Energy Transfer) Assay
BACE1, sequence (P56817 46-501, species assumed): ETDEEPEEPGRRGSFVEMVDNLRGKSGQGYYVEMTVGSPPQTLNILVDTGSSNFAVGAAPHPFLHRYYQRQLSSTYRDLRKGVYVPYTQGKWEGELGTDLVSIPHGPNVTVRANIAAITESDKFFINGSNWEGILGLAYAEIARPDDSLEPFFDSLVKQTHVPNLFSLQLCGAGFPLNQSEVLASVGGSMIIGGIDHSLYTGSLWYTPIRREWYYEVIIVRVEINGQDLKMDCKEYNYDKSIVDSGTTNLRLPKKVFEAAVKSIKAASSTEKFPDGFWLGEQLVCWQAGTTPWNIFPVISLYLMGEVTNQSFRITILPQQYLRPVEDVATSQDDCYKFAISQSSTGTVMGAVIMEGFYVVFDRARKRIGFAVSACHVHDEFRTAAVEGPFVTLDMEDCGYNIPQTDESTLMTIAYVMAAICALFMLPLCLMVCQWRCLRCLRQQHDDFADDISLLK
Enzyme Assay Data in the Example Table I
The assay buffer used in this screen is 0.05 M acetate, pH 4.2, 10% DMSO final, 100 uM genapol (which is a nonionic detergent, below its Critical Micelle Concentration). The Beta Secretase enzyme (0.2 nM) is pre-incubated for one hour with inhibitors, typically in about 1 uL of DMSO according to a serial dilution, are added thereto. This assay is effectively started by the addition of FRET substrate (50 nM) and the combination is incubated for one hour. The FRET assay is terminated with by addition of Tris buffer, which raises the pH to neutrality, and the fluorescence is determined. The FRET substrate is a peptide with commercially available fluorophore and quencher, on opposite sides of the BACE cleavage site. Proteolytic cleavage of the FRET substrate releases quenching of fluorescence (excitation 488 nm and […]).

For assay [3], the target named is T1, Cathepsin D (Cat D) (Homo sapiens, UniProt P07339).
T1 construct: made in house; host or cells: CHO cells
T1 sequence (P07339 65-412, species assumed): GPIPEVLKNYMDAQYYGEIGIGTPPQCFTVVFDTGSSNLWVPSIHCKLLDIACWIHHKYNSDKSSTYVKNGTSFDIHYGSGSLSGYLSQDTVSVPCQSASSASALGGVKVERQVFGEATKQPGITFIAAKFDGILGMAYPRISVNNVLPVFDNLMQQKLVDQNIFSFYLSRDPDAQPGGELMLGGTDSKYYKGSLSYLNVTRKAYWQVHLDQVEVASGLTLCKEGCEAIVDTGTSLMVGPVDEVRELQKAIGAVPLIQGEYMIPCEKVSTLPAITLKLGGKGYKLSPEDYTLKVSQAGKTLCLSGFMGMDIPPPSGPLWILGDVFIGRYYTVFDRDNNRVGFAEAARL
Kind of assay: In vitro enzymatic Cathepsin D (Cat D) FRET assay. Type of assay: biochemical. The conditions noted are these: read-out: CatD IC50. As to the method:
In Vitro Enzymatic Cathepsin D (Cat D) FRET (Fluorescence Resonance Energy Transfer) Assay
Recombinant Cat D was expressed in CHO cells. The assay buffer for CathepsinD is 0.05 M citrate pH 3.5, 10% DMSO final, 5 mM CHAPS. The Cat D enzyme (9 nM) is pre-incubated for one hour with inhibitors, typically in about 1 uL of DMSO according to a serial dilution, is added thereto. The assays are effectively started by the addition of different FRET substrates (20 nM for Cat D) and the combination is incubated for one hour. The FRET assay is terminated with by addition of Tris buffer, which raises the pH to neutrality, and the fluorescence is determined. The FRET substrate is a peptide with commercially available fluorophore and quencher, on opposite sides of the BACE cleavage site. The Cat D substrate peptide sequence is based on sequence #1 of Table 1 from Gulnik et al. FEBS Letters v413 p 379-384 1997. Proteolytic cleavage of the FRET substrate releases quenching of fluorescence (Cat D excitation 500 nm and emission 580 nm). […]
Where available, the in-vitro Cat D FRET assay data for each of the Examples, conducted by the first procedure, is provided in Tables 1 and 3. For example, the compound of example 28 has a Cat D IC50 value of >400 uM.

Where [4] appears, read: average IC50, read-out: BACE1 cell assay IC50.
The mark [5] stands for this setting: average IC50, read-out: BACE1 Enzyme assay IC50.
[6] abbreviates: Aβ40, 24 h incubation, read-out: HEK cell assay IC50.
Where [7] appears, read: read-out: BACE1 FRET assay IC50.

For `CCCOc1cnc2c(Nc3ccc(F)c([C@@]4(C)N=C(N)[C@@]5(C)CC[C@@H]4S5(=O)=O)c3)nccc2n1` [Example 144, N-(3-((1S,2R,5R)-4-amino-2,5-dimethyl-8,8-dioxido-8-thia-3-azabicyclo[3.2.1]oct-3-en-2-yl)-4-fluorophenyl)-2-propoxypyrido[3,4-b]pyrazin-5-amine], the pIC50 in assay [1] (setting [4]) was 7.15; in assay [2] (setting [5]), 8.40; in assay [3] (average IC50, first procedure), below 3.40.

For the compound `CC#CCOc1cnc2c(Nc3ccc(F)c([C@@]4(C)N=C(N)[C@]5(C)CC[C@H]4S5(=O)=O)c3)ncc(F)c2c1` [Example 135, N-(3-((1R,2R,5S)-4-amino-2,5-dimethyl-8,8-dioxido-8-thia-3-azabicyclo[3.2.1]oct-3-en-2-yl)-4-fluorophenyl)-3-(2-butyn-1-yloxy)-5-fluoro-1,7-naphthyridin-8-amine], the pIC50 in assay [1] (setting [4]) was 7.68; in assay [2] (setting [5]), 8.52; in assay [3] (average IC50, first procedure), 3.21.

On to `COC[C@]12CC[C@H]([C@@](C)(c3cc(Nc4ncnc5cc(Cl)cnc45)ccc3F)N=C1N)S2(=O)=O` [Example 141, N-(3-((1R,2R,5S)-4-amino-5-(methoxymethyl)-2-methyl-8,8-dioxido-8-thia-3-azabicyclo[3.2.1]oct-3-en-2-yl)-4-fluorophenyl)-7-chloropyrido[3,2-d]pyrimidin-4-amine], for which the negative-log IC50 (pIC50) was 6.49 in assay [1] (setting [4]); 6.39 in assay [2] (setting [5]); 2.93 in assay [3] (average IC50, first procedure).

With `Cc1cc(OC(F)F)cnc1C(=O)Nc1ccc(F)c([C@@]2(C)N=C(N)[C@@]3(C)CC[C@@H]2S3(=O)=O)c1` [Example 23, N-(3-((1S,2R,5R)-4-Amino-2,5-dimethyl-8,8-dioxido-8-thia-3-azabicyclo[3.2.1]oct-3-en-2-yl)-4-fluorophenyl)-5-(difluoromethoxy)-3-methylpicolinamide], the negative-log IC50 (pIC50) in assay [1] (setting [6]) is 9.00; in assay [2] (setting [7]) it was 8.70; in assay [3], 3.93.

For the compound `C[C@]12CC[C@H]([C@@](C)(c3cc(Nc4ncc(F)c5cc(Cl)cnc45)ccc3F)N=C1N)S2(=O)=O` [Example 30, N-(3-((1R,2R,5S)-4-amino-2,5-dimethyl-8,8-dioxido-8-thia-3-azabicyclo[3.2.1]oct-3-en-2-yl)-4-fluorophenyl)-3-chloro-5-fluoro-1,7-naphthyridin-8-amine], the values for the pIC50 in assay [1] (setting [6]), in assay [2] (setting [7]) and in assay [3] were 6.79, 7.48 and 2.35, respectively.

Consider `Cc1cc(C(F)(F)F)cnc1C(=O)Nc1ccc(F)c([C@@]2(C)N=C(N)[C@]3(CF)CC[C@H]2S3(=O)=O)c1` [Example 93, N-(3-((1R,2R,5S)-4-amino-5-(fluoromethyl)-2-methyl-8,8-dioxido-8-thia-3-azabicyclo[3.2.1]oct-3-en-2-yl)-4-fluorophenyl)-3-methyl-5-(trifluoromethyl)-2-pyridinecarboxamide], for which the negative logarithm of the IC50 (pIC50) in assay [1] (setting [4]) was 7.46; in assay [2] (setting [5]), 7.40; in assay [3] (average IC50, first procedure), 2.80.

With `C[C@]1(c2cc(Nc3ncc(F)c4cc(OCC5CC5)cnc34)ccc2F)N=C(N)[C@@]2(C)CC[C@@H]1S2(=O)=O` [Example 137, N-(3-((1S,2R,5R)-4-amino-2,5-dimethyl-8,8-dioxido-8-thia-3-azabicyclo[3.2.1]oct-3-en-2-yl)-4-fluorophenyl)-3-(cyclopropylmethoxy)-5-fluoro-1,7-naphthyridin-8-amine], the pIC50 in assay [1] (setting [4]) was 7.18; in assay [2] (setting [5]), 8.52; in assay [3] (average IC50, first procedure) it was below 3.40.

Regarding `COc1cnc(C(=O)Nc2ccc(F)c([C@@]3(C)N=C(N)[C@@]4(C)CC[C@@H]3S4(=O)=O)c2)cn1` [Example 37, N-(3-((1S,2R,5R)-4-amino-2,5-dimethyl-8,8-dioxido-8-thia-3-azabicyclo[3.2.1]oct-3-en-2-yl)-4-fluorophenyl)-5-methoxy-2-pyrazinecarboxamide], the negative-log IC50 (pIC50) in assay [1] (setting [6]) is 9.00; in assay [2] (setting [7]), 8.40; in assay [3], 2.93.

For `Cc1cc(Cl)cnc1C(=O)Nc1ccc(F)c([C@@]2(C)N=C(N)[C@@]3(C)CCC[C@]2(F)S3(=O)=O)c1` [Example 7, N-(3-((1S,2R,5R)-4-Amino-1-fluoro-2,5-dimethyl-9,9-dioxido-9-thia-3-azabicyclo[3.3.1]non-3-en-2-yl)-4-fluorophenyl)-5-chloro-3-methylpicolinamide], the negative logarithm of the IC50 (pIC50) is 6.66 in assay [1] (setting [6]), 8.15 in assay [2] (setting [7]) and 4.65 in assay [3].

As for `Cc1cc(C(F)(F)F)cnc1C(=O)Nc1ccc(F)c([C@@]2(CF)N=C(N)[C@]3(C)CC[C@H]2S3(=O)=O)c1` (single isomer, unassigned) [Example 116], the pIC50 in assay [1] (setting [4]) was 7.33; in assay [2] (setting [5]) it was 7.36; in assay [3] (average IC50, first procedure) it was 3.59.

For `COCc1ccc(C(=O)Nc2ccc(F)c([C@@]3(C)N=C(N)[C@@]4(C)CC[C@@H]3S4(=O)=O)c2)nc1` [Example 90, N-(3-((1S,2R,5R)-4-amino-2,5-dimethyl-8,8-dioxido-8-thia-3-azabicyclo[3.2.1]oct-3-en-2-yl)-4-fluorophenyl)-5-(methoxymethyl)-2-pyridinecarboxamide], the pIC50 was 7.70 in assay [1] (setting [4]); 7.24 in assay [2] (setting [5]); 2.47 in assay [3] (average IC50, first procedure).

Turning to `Cc1cc(Cl)cnc1C(=O)Nc1ccc(F)c([C@@]2(CF)N=C(N)[C@]3(C)CC[C@H]2S3(=O)=O)c1` [Example 72, N-(3-((1R,2S,5S)-4-amino-2-(fluoromethyl)-5-methyl-8,8-dioxido-8-thia-3-azabicyclo[3.2.1]oct-3-en-2-yl)-4-fluorophenyl)-5-chloro-3-methyl-2-pyridinecarboxamide], the negative-log IC50 (pIC50) in assay [1] (setting [4]) is 6.95; in assay [2] (setting [5]), 7.62; in assay [3] (average IC50, first procedure), below 3.40.

As for `C[C@]1(c2cc(Nc3nccc4[nH]c(=O)cnc34)ccc2F)N=C(N)[C@@]2(CF)CC[C@@H]1S2(=O)=O` [Example 148, 5-((3-((1S,2R,5R)-4-amino-5-(fluoromethyl)-2-methyl-8,8-dioxido-8-thia-3-azabicyclo[3.2.1]oct-3-en-2-yl)-4-fluorophenyl)amino)pyrido[3,4-b]pyrazin-2(1H)-one], the negative logarithm of the IC50 (pIC50) in assay [1] (setting [4]) is 7.72; in assay [2] (setting [5]), 7.80; in assay [3] (average IC50, first procedure), 3.66.

As to `COc1cnc2c(Nc3ccc(F)c([C@@]4(C)N=C(N)[C@@]5(C)CC[C@@H]4S5(=O)=O)c3)ncc(F)c2c1` [Example 36, N-(3-((1S,2R,5R)-4-amino-2,5-dimethyl-8,8-dioxido-8-thia-3-azabicyclo[3.2.1]oct-3-en-2-yl)-4-fluorophenyl)-5-fluoro-3-methoxy-1,7-naphthyridin-8-amine], the pIC50 is 8.22 in assay [1] (setting [6]), 8.70 in assay [2] (setting [7]) and 2.26 in assay [3].

In general, pIC50 refers to the IC50 on a negative log10 scale, so that one unit is a factor of ten.
